Values joined by “and” are separate entries in the source; they are usually repeats but may differ in a detail not shown here. Identical values can stand only once.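 Growth conditions: 96-well plates. Treatment: test compound, 48 hours, 5 concentrations. Analysis: linear interpolation between bracketing concentrations; unreached endpoints set to highest concentration. GI50 marks 50% less growth. TGI: concentration producing complete growth inhibition.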
Assays:
Test in all cases: DTP human tumour cell line panel, 48 h
A498 renal = system: A498 renal
BT-549 breast = system: BT-549 breast
CAKI-1 renal = system: CAKI-1 renal
DU-145 prostate = system: DU-145 prostate
HCC-2998 colon = system: HCC-2998 colon
HCT-116 colon = system: HCT-116 colon
HOP-92 NSCLC = system: HOP-92 NSCLC
SK-MEL-28 melanoma = system: SK-MEL-28 melanoma
SW-620 colon = system: SW-620 colon
UO-31 renal = system: UO-31 renal

| SMILES | TGI (A498 renal) | TGI (BT-549 breast) | TGI (CAKI-1 renal) | TGI (DU-145 prostate) | TGI (HCC-2998 colon) | TGI (HCT-116 colon) | TGI (HOP-92 NSCLC) | TGI (SK-MEL-28 melanoma) | TGI (SW-620 colon) | TGI (UO-31 renal) | GI50 (A498 renal) | GI50 (BT-549 breast) | GI50 (CAKI-1 renal) | GI50 (DU-145 prostate) | GI50 (HCC-2998 colon) | GI50 (HCT-116 colon) | GI50 (HOP-92 NSCLC) | GI50 (SK-MEL-28 melanoma) | GI50 (SW-620 colon) | GI50 (UO-31 renal) |
| --- | --- | --- | --- | --- | --- | --- | --- | --- | --- | --- | --- | --- | --- | --- | --- | --- | --- | --- | --- | --- |
| CNC(=S)N/N=C/c1ccc([N+](=O)[O-])s1 | > 10 µM | > 10 µM | > 10 µM | > 10 µM | > 10 µM | > 10 µM | > 10 µM | > 10 µM | > 10 µM | > 10 µM | – | – | – | – | – | – | – | – | – | – |
| CCCCCCN(CCCCCC)CC(O)c1ccc2c3c(cccc13)CC2 (stereo not drawn) | 12 µM | 28.1 µM | 9.35 µM | 24.7 µM | 9.67 µM | 13.2 µM | 9.27 µM | 24.9 µM | 14.9 µM | 17.3 µM | 2.31 µM | 13.5 µM | 1.96 µM | 11.6 µM | 3.07 µM | 1.68 µM | 2.16 µM | 11.2 µM | 3.17 µM | 3.09 µM |
| COc1cc(S(C)(=O)=O)ccc1Nc1nc2ccc(-c3ccc(NC(=O)[C@H](C)c4ccc(F)cc4)cc3)cn2n1 | > 100 µM | > 100 µM | > 100 µM | > 100 µM | > 100 µM | > 100 µM | > 100 µM | > 100 µM | > 100 µM | > 100 µM | > 100 µM | > 63.8 µM | > 100 µM | > 100 µM | > 100 µM | 0.0828 µM | > 51.1 µM | > 100 µM | 17.1 µM | > 100 µM |
| COc1ccc(-c2cn[nH]c2-c2cc(OC)c3c(c2)OCCO3)cc1 | 0.419 µM | 22 µM | 58.4 µM | 16.9 µM | 20.4 µM | 13.9 µM | 28.1 µM | 46.3 µM | > 72.5 µM | 42 µM | 0.0298 µM | 0.494 µM | 0.143 µM | 0.312 µM | 0.673 µM | 0.0708 µM | 1.04 µM | 2.12 µM | 0.0506 µM | 0.734 µM |
| CC[C@@]1(O)C(=O)OCc2c1cc1n(c2=O)Cc2cc3cc(N)ccc3nc2-1 | 0.143 µM and 0.152 µM | 1.11 µM | 1.62 µM and 1.21 µM | – | 0.495 µM and 1.36 µM | 1.65 µM | 0.773 µM and 0.247 µM | 4.58 µM and 2.2 µM | 5.06 µM | 0.169 µM and 0.0358 µM | 0.0277 µM and 0.0376 µM | 0.158 µM | 0.00361 µM and 0.026 µM | 0.0144 µM | 0.0707 µM | – | 0.0132 µM and < 0.025 µM | 0.183 µM and 0.0563 µM | 0.0113 µM and < 0.031 µM | 0.0117 µM |
| COc1ccc(Cl)cc1Nc1nc(C(F)(F)F)ccc1C(=O)N/N=C/c1cc(OC)c(OC)c(OC)c1 | 7.65 µM | 3.68 µM | 4.98 µM | > 100 µM | 19.7 µM | 7.66 µM | 7.56 µM | 9.26 µM | > 100 µM | 3.79 µM | 2.19 µM | 1.2 µM | 1.61 µM | 4.27 µM | 2.24 µM | 2.41 µM | 2.09 µM | 1.83 µM | 2.79 µM | 1.24 µM |

From PubChem BioAssay (NCI)
